# Experimental data published in patent publication US12600705B2, “Heat shock protein modulators and anti-Huntington disease therapeutic agents” (UNIVERSITY OF PITTSBURGH-OF THE COMMONWEALTH SYSTEM OF …, priority 2020, dated 2026).
# Key:
# [1] = system: HEK293 cells that express an HTT exon containing 17 glutamine repeats (HTT17Q-mCherry); assay: Huntington's Disease (HD) model: protein aggregates (puncta) per cell in HEK293H cells transfected with HTT17Q-mCherry; conditions: 6 h; for Effectiveness compared to MAL1-271 (Less/Similar/More) / Effectiveness compared to the MAL1-271 positive control: 10 μM; for Effectiveness compared to MAL1-271 (Less/Similar/More): blunting formation of toxic aggregates; for Effect on aggregate suppression compared to the MAL1-271 positive control: Example 1, FIG. 2, 10 μM compound; for Effectiveness compared to the MAL1-271 positive control: Example 2
# Protocol: Cells were stained for confocal microscope imaging with 4′,6-diamidino-2-phenylindole (DAPI), a fluorescent dye with high affinity to adenine-thymine rich DNA regions. A bright spot detection tool was used to identify and quantify the number of protein aggregates (“dots”) per cell.
# Biological Assays: For HD assays, HEK293H cells were grown in DMEM (Sigma-Aldrich, Saint Louis, MO) supplemented with 10% fetal bovine serum (GE Healthcare Hyclone) and 1% penicillin/streptomycin (Thermo Fisher Scientific, Waltham, MA) at 37° C. and at a 5% CO2 atmosphere. Cells were seeded at 250,000 cells/plate in Poly-D-Lysine Coated 35 mm MatTek dishes (P35GC-1.5-10-C, MatTek Corporation, Ashland, MA). After 24 h growth, a total of 4 μg of mCherry tagged-polyglutamine-expanded (17-polyQ-expanded) huntingtin (HTT) was introduced using Lipofectamine 2000 (Invitrogen, Thermo Fisher Scientific) according to the manufacturer's instructions. […] The following day, cells were treated with vehicle (DMSO) as control or with 10 μM of the examined compounds for 6 h. The cells were then washed with PBS and fixed in 4% formaldehyde for 15 min at room temperature. Finally, cells were stained with DAPI (1:250 in PBS) for 4 h and maintained in PBS for confocal microscope imaging.
# Complete volumes of cells were acquired at 0.5-μm steps, and volumes were reconstructed and analyzed using Nikon's NIS-Elements software (Nikon Instrument, Melville, NY). Bright spot detection tool was used to identify and quantify the number of protein aggregates (“dots”) per cell. A non-parametric Kruskal-Wallis test analysis was performed using Prism software (GraphPad, La Jolla, CA). Statistically significant differences between control (DMSO) and compound treated samples are indicated by asterisks in figure. To obtain representative images from this experiment, maximum intensity projections of 0.5-μm steps though the entire cell were generated using Nikon's NIS-Elements software.
# Cells were stained for confocal microscope imaging with 4′,6-diamidino-2-phenylindole (DAPI) and bright spot detection tool was used to identify and quantify the number of protein aggregates (“dots”) per cell.
# [2] = system: HDAC 1-3; assay: HDAC 1-3 assay (BioVision kit, HeLa nuclear extract); conditions: for Percent inhibition HDAC 1-3: Compound tested at 1 uM
# Protocol: For HDAC 1-3 assays, kits from BioVision Incorporated (https://www.biovision.com/) were used and their recommended protocols followed. […] Each compound was dissolved in DMSO to generate a 100 μM stock solution, then diluted using HPLC-grade water to prepare 10 μM, 2 μM, and 1 μM solutions. These solutions were used for the assays. […] Assays utilized a BioTek Synergy H1 microplate reader and black Nunc MicroWell 96-well optical-bottom plates with polymer base.
# HDAC 1-3: 10 μL of each diluted compound (10 μM) and 40 μL of HPLC-grade water were mixed and added into a well on the plate. […] Then, 50 μL of the reaction mixture was added to each well and the solution was mixed thoroughly. The reaction mixture consisted of 500 μL of 10×HDAC Assay buffer, 100 μL of HeLa nuclear extract, 250 μL of HDAC substrate, and 1.65 mL of HPLC-grade water. The plate was then warmed in an incubator at 37° C. with a rocker platform and was incubated for 30 min. After the incubation, 10 μL of Lysine Developer solution was added to each well. The plate was kept in the incubator for an additional 30 min. Afterwards, the plate was analyzed using a BioTek Synergy H1 microplate reader, taking two independent readings per well that were subsequently averaged.
# [3] = biological target: T1, HDAC 6 (Homo sapiens, UniProt Q9UBN7); assay: HDAC 6 assay (BPS Bioscience kit); conditions: read-out: Percent Inhibition
# T1 sequence (Q9UBN7 1-1215): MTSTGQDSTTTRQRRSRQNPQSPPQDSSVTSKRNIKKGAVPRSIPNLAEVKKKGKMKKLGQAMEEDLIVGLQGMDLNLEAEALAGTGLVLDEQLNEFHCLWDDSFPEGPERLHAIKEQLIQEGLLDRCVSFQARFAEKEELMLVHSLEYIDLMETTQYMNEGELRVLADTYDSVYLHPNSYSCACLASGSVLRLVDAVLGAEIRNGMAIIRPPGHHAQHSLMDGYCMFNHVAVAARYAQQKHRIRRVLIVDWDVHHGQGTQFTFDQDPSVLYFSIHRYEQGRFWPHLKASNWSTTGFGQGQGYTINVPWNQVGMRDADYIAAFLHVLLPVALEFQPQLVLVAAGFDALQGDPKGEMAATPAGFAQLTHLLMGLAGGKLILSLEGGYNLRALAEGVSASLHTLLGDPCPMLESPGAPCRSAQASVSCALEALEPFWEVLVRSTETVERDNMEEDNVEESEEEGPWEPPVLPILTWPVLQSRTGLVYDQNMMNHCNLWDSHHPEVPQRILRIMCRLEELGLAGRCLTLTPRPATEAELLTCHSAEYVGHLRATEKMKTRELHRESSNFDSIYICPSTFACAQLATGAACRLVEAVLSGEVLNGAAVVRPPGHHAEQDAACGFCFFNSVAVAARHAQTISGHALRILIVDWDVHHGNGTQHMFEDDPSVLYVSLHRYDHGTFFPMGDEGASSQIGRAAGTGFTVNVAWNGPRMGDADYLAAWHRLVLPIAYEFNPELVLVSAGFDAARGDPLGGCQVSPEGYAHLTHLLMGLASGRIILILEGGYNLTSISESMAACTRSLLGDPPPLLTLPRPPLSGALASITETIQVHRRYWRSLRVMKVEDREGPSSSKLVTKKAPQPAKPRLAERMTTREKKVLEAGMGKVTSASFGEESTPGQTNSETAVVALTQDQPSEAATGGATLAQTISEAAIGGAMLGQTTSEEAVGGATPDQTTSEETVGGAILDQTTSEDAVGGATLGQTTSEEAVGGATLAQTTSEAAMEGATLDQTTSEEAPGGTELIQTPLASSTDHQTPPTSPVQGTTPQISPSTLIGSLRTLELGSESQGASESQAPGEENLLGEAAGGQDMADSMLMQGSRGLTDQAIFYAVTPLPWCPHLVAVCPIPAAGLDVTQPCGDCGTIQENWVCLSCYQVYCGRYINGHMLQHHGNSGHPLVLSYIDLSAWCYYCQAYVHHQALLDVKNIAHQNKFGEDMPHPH
# Protocol: (§1) For HDAC 4-8 assays, kits from BPS Bioscience (https://bpsbioscience.com/) were used and their recommended protocols followed. […] Each compound was dissolved in DMSO to generate a 100 μM stock solution, then diluted using HPLC-grade water to prepare 10 μM, 2 μM, and 1 μM solutions. These solutions were used for the assays. […] Assays utilized a BioTek Synergy H1 microplate reader and black Nunc MicroWell 96-well optical-bottom plates with polymer base.
# (§2) HDAC 4 (and, by analogy, HDAC 5, 6, 7, and 8): 40 μL of the parent solution was added to each well on the plate. The parent solution was prepared from a fluorogenic HDAC substrate, a 1 mg/mL solution of bovine serum albumin (BSA) in water, and HDAC assay buffer. 5 μL of the inhibitor buffer (10% DMSO in water) was added to the wells designated as “Blank” and “Positive Control” (no inhibitor). 5 μL of the test compound was added to each well designated as “Test Inhibitor”. Different concentrations of TSA (for a standard curve) was added to each well designated as “Standard.” 5 μL of HDAC assay buffer was added to the “Blank” wells. Then, 5 μL of HDAC 4 human recombinant enzyme was added to the wells designated as “Positive Control”, “Test Inhibitor”, and “Standard.” The plate was then warmed in an incubator at 37° C. with a rocker platform for 30 min After the incubation, 50 μL of 2×HDAC Developer solution was added to each well. The plate was returned to the incubator and was shaken on the rocker for an additional 15 min. at room temperature. Afterwards, the plate was analyzed using a BioTek Synergy H1 microplate reader, taking two independent readings per well that were subsequently averaged.
# [4] = biological target: T2, HDAC 8 (Homo sapiens, UniProt Q9BY41); assay: HDAC 8 assay (BPS Bioscience kit); conditions: read-out: Percent Inhibition
# T2 sequence (Q9BY41 1-377): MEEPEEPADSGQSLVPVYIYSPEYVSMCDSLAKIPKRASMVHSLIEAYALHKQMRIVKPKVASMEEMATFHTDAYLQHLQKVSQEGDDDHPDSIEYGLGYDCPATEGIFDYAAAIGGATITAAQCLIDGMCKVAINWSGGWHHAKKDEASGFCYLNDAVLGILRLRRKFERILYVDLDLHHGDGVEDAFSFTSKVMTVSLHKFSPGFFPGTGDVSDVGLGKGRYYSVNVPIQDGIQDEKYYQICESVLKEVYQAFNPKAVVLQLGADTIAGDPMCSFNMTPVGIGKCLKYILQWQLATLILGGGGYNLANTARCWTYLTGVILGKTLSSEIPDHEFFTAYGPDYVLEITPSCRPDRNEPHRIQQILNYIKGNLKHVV
# Protocol: as §1, §2
smiles,measurement,setting,value
"CCOC(=O)C1=CN(Cc2ccc(C(=O)NO)cc2)S(=O)(=O)N(C)C1c1ccc(Cl)cc1Cl (single isomer, unassigned; (+)) [(+)-951_66, (+)-Ethyl 3-(2,4-dichlorophenyl)-6-(4-(hydroxycarbamoyl)benzyl)-2-methyl-3,6-dihydro-2H-1,2,6-thiadiazine-4-carboxylate 1,1-dioxide]",Effectiveness compared to MAL1-271 (Less/Similar/More),[1],Less
"CCOC(=O)C1=CN(Cc2ccc(C(=O)NO)cc2)S(=O)(=O)N(C)C1c1ccc(Cl)cc1Cl (single isomer, unassigned; (-)) [(−)-951_67, (−)-Ethyl 3-(2,4-dichlorophenyl)-6-(4-(hydroxycarbamoyl)benzyl)-2-methyl-3,6-dihydro-2H-1,2,6-thiadiazine-4-carboxylate 1,1-dioxide]",Effectiveness compared to MAL1-271 (Less/Similar/More),[1],Similar
"CCOC(=O)C1=CN(CCCC(=O)OC)S(=O)(=O)NC1c1ccc(Cl)cc1Cl (stereo not drawn) [Compound 5g, Ethyl 3-(2,4-dichlorophenyl)-6-(4-methoxy-4-oxobutyl)-3,6-dihydro-2H-1,2,6-thiadiazine-4-carboxylate 1,1-dioxide]",Effect on aggregate suppression compared to the MAL1-271 positive control,[1],less effective
"CCOC(=O)C1=CN(Cc2ccc(CO)cc2)S(=O)(=O)NC1c1ccc(Cl)cc1Cl (stereo not drawn) [Compound 5h, Ethyl 3-(2,4-dichlorophenyl)-6-(4-(hydroxymethyl)benzyl)-3,6-dihydro-2H-1,2,6-thiadiazine-4-carboxylate 1,1-dioxide]",Effect on aggregate suppression compared to the MAL1-271 positive control,[1],less effective
"CCOC(=O)C1=CN(C(=O)OC(C)(C)C)S(=O)(=O)N(Cc2ccc(C(=O)OC(C)(C)C)cc2)C1c1ccc(Cl)cc1Cl (stereo not drawn) [Compound 6i, 2-(tert-Butyl) 4-ethyl 6-(4-(tert-butoxycarbonyl)benzyl)-5-(2,4-dichlorophenyl)-5,6-dihydro-2H-1,2,6-thiadiazine-2,4-dicarboxylate 1,1-dioxide]",Effect on aggregate suppression compared to the MAL1-271 positive control,[1],less effective
"CCOC(=O)C1=CN(Cc2ccc(C(=O)O)cc2)S(=O)(=O)NC1c1ccc(Cl)cc1Cl (stereo not drawn) [Compound 7h, 4-((5-(2,4-Dichlorophenyl)-4-(ethoxycarbonyl)-1,1-dioxido-5,6-dihydro-2H-1,2,6-thiadiazin-2-yl)methyl)benzoic acid]",Effect on aggregate suppression compared to the MAL1-271 positive control,[1],less effective
"O=C(O)CCCN1C=C(C(=O)O)C(c2ccc(Cl)cc2Cl)NS1(=O)=O (stereo not drawn) [Compound 9g, 6-(3-Carboxypropyl)-3-(2,4-dichlorophenyl)-3,6-dihydro-2H-1,2,6-thiadiazine-4-carboxylic acid 1,1-dioxide]",Effect on aggregate suppression compared to the MAL1-271 positive control,[1],less effective
"CCOC(=O)C1=CN(CCCC(=O)NO)S(=O)(=O)NC1c1ccc(Cl)cc1Cl (stereo not drawn) [Compound 12g, Ethyl 3-(2,4-dichlorophenyl)-6-(4-(hydroxyamino)-4-oxobutyl)-3,6-dihydro-2H-1,2,6-thiadiazine-4-carboxylate 1,1-dioxide]",Percent inhibition HDAC 1-3,[2],1%
"CCOC(=O)C1=CN(Cc2ccc(C(=O)NO)cc2)S(=O)(=O)NC1c1ccc(Cl)cc1Cl (stereo not drawn) [Compound 12h, Ethyl 3-(2,4-dichlorophenyl)-6-(4-(hydroxycarbamoyl)benzyl)-3,6-dihydro-2H-1,2,6-thiadiazine-4-carboxylate 1,1-dioxide]",Percent inhibition HDAC 1-3,[2],22%
"COC(=O)CCCN1C=C(C(=O)OCc2ccccc2)C(c2ccc(Cl)cc2Cl)NS1(=O)=O (stereo not drawn) [Compound 18g, Benzyl 3-(2,4-dichlorophenyl)-6-(4-methoxy-4-oxobutyl)-3,6-dihydro-2H-1,2,6-thiadiazine-4-carboxylate 1,1-dioxide]",Effect on aggregate suppression compared to the MAL1-271 positive control,[1],less effective
"CCOC(=O)C1=CN(Cc2ccc(C(=O)NO)cc2)S(=O)(=O)N(C)C1c1ccc(Cl)cc1Cl (stereo not drawn) [Compound 930_62, Ethyl 3-(2,4-dichlorophenyl)-6-(4-(hydroxycarbamoyl)benzyl)-2-methyl-3,6-dihydro-2H-1,2,6-thiadiazine-4-carboxylate 1,1-dioxide]",Effectiveness compared to MAL1-271 (Less/Similar/More),[1],More
same,Effectiveness compared to the MAL1-271 positive control,[1],more effective
"CCOC(=O)C1=CN(Cc2ccc(C(=O)NO)cc2)S(=O)(=O)N(CC2CC2)C1c1ccc(Cl)cc1Cl (stereo not drawn) [Compound 930_63, Ethyl 2-(cyclopropylmethyl)-3-(2,4-dichlorophenyl)-6-(4-(hydroxycarbamoyl)benzyl)-3,6-dihydro-2H-1,2,6-thiadiazine-4-carboxylate 1,1-dioxide]",Effectiveness compared to MAL1-271 (Less/Similar/More),[1],More
same,Effectiveness compared to the MAL1-271 positive control,[1],more effective
O=C(O)CCCN1C=C(C(=O)OCc2ccc(Cl)cc2Cl)C(c2ccc(Cl)cc2Cl)NS1(=O)=O (stereo not drawn) [Compound 959_30],Effectiveness compared to MAL1-271 (Less/Similar/More),[1],Similar
"O=C(CCCN1C=C(C(=O)OCc2ccccc2)C(c2ccc(Cl)cc2Cl)NS1(=O)=O)OCCN1CCOCC1 (stereo not drawn) [Compound 959_74, Benzyl 3-(2,4-dichlorophenyl)-6-(4-(2-morpholinoethoxy)-4-oxobutyl)-3,6-dihydro-2H-1,2,6-thiadiazine-4-carboxylate 1,1-dioxide]",Effectiveness compared to MAL1-271 (Less/Similar/More),[1],Similar
"O=C(CCCCCCC(=O)Nc1ccccc1)NO [SAHA, Vorinostat]",inhibition at 0.001 µM,[3],6%
same,inhibition at 0.005 µM,[3],25%
same,inhibition at 0.01 µM,[3],47%
same,inhibition at 0.5 µM,[3],94%
same,inhibition at 0.05 µM,[4],54%
same,inhibition at 0.2 µM,[4],67%
same,inhibition at 1 µM,[4],70%
same,inhibition at 2 µM,[4],86%
same,inhibition at 5 µM,[4],96%
"CC(/C=C/C(=O)NO)=C\[C@@H](C)C(=O)c1ccc(N(C)C)cc1 [TSA, Trichostatin A]",Percent Inhibition,"[2]; HDAC 1-3, standard at 0.0025 uM",NIA
same,Percent Inhibition,"[2]; HDAC 1-3, standard at 0.005 uM",NIA
same,Percent Inhibition,"[2]; HDAC 1-3, standard at 0.05 uM",33%
same,Percent Inhibition,"[2]; HDAC 1-3, standard at 0.1 uM",49%
same,Percent Inhibition,"[2]; HDAC 1-3, standard at 1 uM",68%
